Results taken from patent publication US8541449B2, “Substituted isoquinolines and isoquinolinones as Rho kinase inhibitors” (Sanofi, priority 2008, dated 2013).

How the values were obtained:
[1] = test system: Protein Kinase G; settings: Rho kinase versus Protein Kinase G; cited from earlier work
[2] = target: T1, human recombinant ROCK II (Homo sapiens, UniProt O75116); experiment: Determination of Rho kinase inhibition (Caliper peptide phosphorylation assay); type: biochemical; settings: 60 min at 32° C., negative decadal logarithm of the IC50
T1 construct: N-terminal His6-tagged recombinant human ROCK-II residues 11-552; His6 (N); purchased Millipore GmbH, Schwalbach, Germany
Method in brief: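 His6-tagged human ROCK II (residues 11-552) phosphorylated a fluorescein-labelled peptide for 60 min at 32° C in Tris-HCl pH 7.4 with MgCl2, DTT and BSA, using 3 μM peptide and 120 μM ATP as diluted stocks. EDTA-stopped; phosphopeptide separated and detected by Caliper mobility shift; IC50 determined.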

[3] = target: T2, recombinant human PKA (Homo sapiens, UniProt P17612); experiment: Determination of Protein Kinase A inhibition (Caliper peptide phosphorylation assay); type: biochemical; settings: recombinant human PKA versus ROCK II
T2 construct: Active recombinant human PKA (residues 1-351, N-terminal His-tag); His-tag (N); purchased Invitrogen, Karlsruhe, Germany
Method in brief: (§1)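 Full-length His-tagged PKG1-beta (150 ng/ml working) or His-tagged PKA residues 1-351 (30 ng/ml working) was mixed with compound in pH 7.4 Tris/MgCl2/DTT buffer. Fluorescein-peptide substrate and ATP (3 μM and 120 μM working) were then added for 60 min at 32 °C before an EDTA stop. Phosphopeptide was separated electrophoretically on a Caliper instrument to derive IC50.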

[4] = target: T3, recombinant human PKG1-beta (Homo sapiens, UniProt Q13976); experiment: Determination of Protein Kinase G inhibition (Caliper peptide phosphorylation assay); type: biochemical; settings: recombinant human PKG1-beta versus ROCK II
T3 construct: Active recombinant human PKG1-beta (full-length, with N-terminal His-tag); His-tag (N); purchased Millipore GmbH, Schwalbach, Germany
T3 sequence (Q13976 1-686 isoform Q13976-2): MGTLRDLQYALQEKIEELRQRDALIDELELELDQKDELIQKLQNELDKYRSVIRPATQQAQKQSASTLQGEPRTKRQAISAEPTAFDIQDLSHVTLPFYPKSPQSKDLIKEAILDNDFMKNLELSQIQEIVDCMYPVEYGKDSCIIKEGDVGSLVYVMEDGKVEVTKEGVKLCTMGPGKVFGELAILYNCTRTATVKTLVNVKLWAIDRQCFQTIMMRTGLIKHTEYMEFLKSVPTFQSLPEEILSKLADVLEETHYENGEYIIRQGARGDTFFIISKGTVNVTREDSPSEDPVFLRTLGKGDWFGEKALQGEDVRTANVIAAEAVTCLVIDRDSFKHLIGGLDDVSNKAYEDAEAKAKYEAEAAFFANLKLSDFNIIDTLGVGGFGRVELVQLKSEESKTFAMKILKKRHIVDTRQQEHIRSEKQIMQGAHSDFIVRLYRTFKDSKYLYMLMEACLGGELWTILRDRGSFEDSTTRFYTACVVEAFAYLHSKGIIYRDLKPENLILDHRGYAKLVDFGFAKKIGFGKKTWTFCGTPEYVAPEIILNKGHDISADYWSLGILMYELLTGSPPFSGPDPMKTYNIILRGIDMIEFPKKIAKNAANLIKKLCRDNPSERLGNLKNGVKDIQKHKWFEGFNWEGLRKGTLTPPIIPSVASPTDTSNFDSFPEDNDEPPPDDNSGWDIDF
Method in brief: as §1

T1 sequence (O75116 11-552): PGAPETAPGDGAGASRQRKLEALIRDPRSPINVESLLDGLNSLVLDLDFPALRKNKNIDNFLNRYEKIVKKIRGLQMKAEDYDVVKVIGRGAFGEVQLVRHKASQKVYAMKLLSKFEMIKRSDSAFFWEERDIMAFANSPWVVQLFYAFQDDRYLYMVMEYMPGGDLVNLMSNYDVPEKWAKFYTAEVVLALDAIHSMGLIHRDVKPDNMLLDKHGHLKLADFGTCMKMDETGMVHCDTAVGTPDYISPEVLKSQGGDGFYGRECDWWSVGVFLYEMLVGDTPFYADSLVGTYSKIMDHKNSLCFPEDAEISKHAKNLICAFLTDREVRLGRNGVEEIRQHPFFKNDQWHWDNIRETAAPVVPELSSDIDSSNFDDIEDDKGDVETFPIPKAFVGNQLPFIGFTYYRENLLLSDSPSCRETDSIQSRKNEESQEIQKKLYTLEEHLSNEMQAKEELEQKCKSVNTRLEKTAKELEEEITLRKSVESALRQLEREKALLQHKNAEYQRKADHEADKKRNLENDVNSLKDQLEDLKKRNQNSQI

In the case of `C[C@@H](N)[C@H]1CC[C@H](C(=O)Nc2ccncc2)CC1` [Example Y-27632], the “selectivity against Protein Kinase G” value [1] is given as 20 fold.
With `CCC(N)[C@]1(c2ccc(F)cc2C)CC[C@H](Oc2cc3cc[nH]c(=O)c3cc2Cl)CC1` (stereo partly drawn) [Example 57, cis-6-[4-(1-Amino-propyl)-4-(4-fluoro-2-methyl-phenyl)cyclohexyloxy]-7-chloro-2H-isoquinolin-1-one] the pIC50 [2] was “+++++++ (8.0≦pIC50)”, the “Selectivity against PKA” value [3] was greater than 1000 and the “Selectivity against PKG” value [4] was greater than 300.
For `CCC(N)[C@]1(c2ccccc2)CC[C@@H](Oc2cc3cc[nH]c(=O)c3cc2Cl)CC1` (stereo partly shown) [Example 32], the pIC50 [2] was “++++++ (7.0≦pIC50<8.0)”, the “Selectivity against PKA” value [3] was greater than 1000 and the “Selectivity against PKG” value [4] was greater than 300.
With `CCC(N)[C@]1(c2ccccc2)CC[C@H](Oc2cc3cc[nH]c(=O)c3cc2Cl)CC1` (stereo partly drawn) [Example 3, cis-6-{[4-(1-aminopropyl)-4-phenylcyclohexyl]oxy}-7-chloro-2H-isoquinolin-1-one] the pIC50 [2] was “+++++++ (8.0≦pIC50)”, the “Selectivity against PKA” value [3] was greater than 1000 and the “Selectivity against PKG” value [4] was greater than 300.
For `CCC(N)[C@]1(c2ccc(C(F)(F)F)cc2)CC[C@H](Oc2cc3cc[nH]c(=O)c3cc2Cl)CC1` (stereo partly drawn) [Example 8, cis-6-[4-(1-Amino-propyl)-4-(4-trifluoromethyl-phenyl)-cyclo-hexyloxy]-7-chloro-2H-isoquinolin-1-one], the pIC50 [2] was “+++++++ (8.0≦pIC50)”, the “Selectivity against PKA” value [3] was greater than 1000 and the “Selectivity against PKG” value [4] was greater than 300.
With `CC(C)CC(N)[C@]1(c2ccccc2)CC[C@@H](Oc2cc3cc[nH]c(=O)c3cc2Cl)CC1` (stereo partly drawn) [Example 20, trans-6-[4-(1-Amino-3-methyl-butyl)-4-phenyl-cyclohexyloxy]-7-chloro-2H-iso quinolin-1-one] the pIC50 [2] was “++++++ (7.0≦pIC50<8.0)”, the “Selectivity against PKA” value [3] was greater than 100 and the “Selectivity against PKG” value [4] was greater than 100.
In the case of `CCOc1cccc([C@]2(C(N)CC)CC[C@@H](Oc3cc4cc[nH]c(=O)c4cc3Cl)CC2)c1` (stereo partly drawn) [Example 63, cis-6-[4-(1-Amino-propyl)-4-(3-ethoxy-phenyl)-cyclohexyloxy]-7-chloro-2H-isoquinolin-1-one], the pIC50 [2] is reported as “+++++++ (8.0≦pIC50)”, the “Selectivity against PKA” value [3] is reported as greater than 1000 and the “Selectivity against PKG” value [4] is reported as greater than 300.
In the case of `CC(C)(N)[C@]1(c2ccccc2)CC[C@H](Oc2cc3cc[nH]c(=O)c3cc2Cl)CC1` [Example 25, cis-6-[4-(1-Amino-1-methyl-ethyl)-4-phenyl-cyclo-hexyloxy]-7-chloro-2H-iso quinolin-1-one], the pIC50 [2] is reported as “+++++++ (8.0≦pIC50)”, the “Selectivity against PKA” value [3] is reported as greater than 1000 and the “Selectivity against PKG” value [4] is reported as greater than 100.
For `NC1([C@]2(c3ccccc3)CC[C@H](Oc3cc4cc[nH]c(=O)c4cc3Cl)CC2)CC1` [Example 2, cis-6-[4-(1-Amino-cyclopropyl)-4-phenyl-cyclohexyloxy]-7-chloro-2H-isoquinolin-1-one], the pIC50 [2] was “+++++++ (8.0≦pIC50)”, the “Selectivity against PKA” value [3] was greater than 1000 and the “Selectivity against PKG” value [4] was greater than 1000.
With `CC(N)[C@]1(c2ccc(F)cc2)CC[C@H](Oc2cc3cc[nH]c(=O)c3cc2Cl)CC1` (stereo partly drawn) [Example 15, cis-6-[4-(1-Amino-ethyl)-4-(4-fluoro-phenyl)-cyclo-hexyloxy]-7-chloro-2H-iso quinolin-1-one] the pIC50 [2] was “+++++++ (8.0≦pIC50)”, the “Selectivity against PKA” value [3] was greater than 1000 and the “Selectivity against PKG” value [4] was greater than 300.
With `CC(N)C[C@]1(c2ccc(F)cc2)CC[C@H](Oc2cc3cc[nH]c(=O)c3cc2Cl)CC1` (stereo partly drawn) [Example 109, cis-6-[4-(2-Amino-propyl)-4-(4-fluoro-phenyl)-cyclohexyloxy]-7-chloro-2H-isoquinolin-1-one] the pIC50 [2] was “++++++ (7.0≦pIC50<8.0)”, the “Selectivity against PKA” value [3] was greater than 300 and the “Selectivity against PKG” value [4] was greater than 100.
In the case of `NC(c1ccccc1)C1CCC(Oc2cc3cc[nH]c(=O)c3cc2Cl)CC1` (stereo not shown) [Example 128, 6-[4-(amino-phenyl-methyl)-cyclohexyloxy]-7-chloro-2H-isoquinolin-1-one], the pIC50 [2] is reported as “+++++ (6.0≦pIC50<7.0)”, the “Selectivity against PKA” value [3] is reported as greater than 10 and the “Selectivity against PKG” value [4] is reported as greater than 10.
In the case of `CCC(N)[C@]1(c2cc(F)cc(F)c2)CC[C@H](Oc2cc3cc[nH]c(=O)c3cc2Cl)CC1` (stereo partly drawn) [Example 58, cis-6-[4-(1-Amino-propyl)-4-(3,5-difluoro-phenyl)-cyclohexyloxy]-7-chloro-2H-isoquinolin-1-one], the pIC50 [2] is reported as “+++++++ (8.0≦pIC50)”, the “Selectivity against PKA” value [3] is reported as greater than 1000 and the “Selectivity against PKG” value [4] is reported as greater than 100.
For `CCC(N)[C@]1(c2cccc(C(F)(F)F)c2)CC[C@H](Oc2cc3cc[nH]c(=O)c3cc2Cl)CC1` (stereo partly drawn) [Example 83, cis-6-[4-(1-Amino-propyl)-4-(3-trifluoromethyl-phenyl)-cyclohexyloxy]-7-chloro-2H-isoquinolin-1-one], the pIC50 [2] was “+++++ (6.0≦pIC50<7.0)”, the “Selectivity against PKA” value [3] was greater than 100 and the “Selectivity against PKG” value [4] was greater than 10.
With `CCC(N)[C@]1(c2cccc(OC)c2)CC[C@H](Oc2cc3cc[nH]c(=O)c3cc2Cl)CC1` (stereo partly shown) [Example 28] the pIC50 [2] was “+++++++ (8.0≦pIC50)”, the “Selectivity against PKA” value [3] was greater than 1000 and the “Selectivity against PKG” value [4] was greater than 1000.
With `NC(c1ccc(F)cc1)C1CCC(Oc2cc3cc[nH]c(=O)c3cc2Cl)CC1` (single isomer, unassigned) [Example 37, 6-{4-[Amino-(4-fluoro-phenyl)-methyl]-cyclohexyloxy}-7-chloro-2H-isoquinolin-1-one] the IC50 [2] was no more than 10 nM, the “Selectivity against PKA” value [3] was greater than 1000 and the “Selectivity against PKG” value [4] was greater than 300.
For `NC(C1CC1)[C@]1(c2ccc(F)cc2)CC[C@H](Oc2cc3cc[nH]c(=O)c3cc2Cl)CC1` (stereo partly drawn) [Example 82, cis-6-[4-(Amino-cyclopropyl-methyl)-4-(4-fluoro-phenyl)-cyclohexyloxy]-7-chloro-2H-isoquinolin-1-one], the pIC50 [2] was “+++++++ (8.0≦pIC50)”, the “Selectivity against PKA” value [3] was greater than 1000 and the “Selectivity against PKG” value [4] was greater than 1000.
In the case of `CCC(N)[C@]1(c2cccc(OC)c2)CC[C@@H](Oc2cc3cc[nH]c(=O)c3cc2Cl)CC1` (stereo partly drawn) [Example 17, trans-6-[4-(1-Amino-propyl)-4-(3-methoxy-phenyl)-cyclohexyloxy]-7-chloro-2H-iso quinolin-1-one], the pIC50 [2] is reported as “++++++ (7.0≦pIC50<8.0)”, the “Selectivity against PKA” value [3] is reported as greater than 300 and the “Selectivity against PKG” value [4] is reported as greater than 100.
For `CCC(N)C1CCC(Oc2cc3cc[nH]c(=O)c3cc2Cl)CC1` (single isomer, unassigned) [Example 130, 6-[4-(1-Amino-propyl)-cyclohexyloxy]-7-chloro-2H-isoquinolin-1-one], the pIC50 [2] was “++++++ (7.0≦pIC50<8.0)”, the “Selectivity against PKA” value [3] was greater than 300 and the “Selectivity against PKG” value [4] was greater than 10.
With `CC(N)(C1CCC(Oc2cc3cc[nH]c(=O)c3cc2Cl)CC1)C1CC1` (single isomer, unassigned) [Example 120, 6-{4-[1-Amino-1-cyclopropyl-ethyl]-cyclohexyloxy}-7-chloro-2H-isoquinolin-1-one] the IC50 [2] was 100 to 1000 nM, the “Selectivity against PKA” value [3] was greater than 100 and the “Selectivity against PKG” value [4] was greater than 10.
For `CCC(N)[C@]1(c2ccccc2Br)CC[C@H](Oc2cc3cc[nH]c(=O)c3cc2Cl)CC1` (stereo partly drawn) [Example 7, cis-6-[4-(1-Amino-propyl)-4-(2-bromo-phenyl)-cyclohexyloxy]-7-chloro-2H-isoquinolin-1-one], the pIC50 [2] was “+++++++ (8.0≦pIC50)”, the “Selectivity against PKA” value [3] was greater than 1000 and the “Selectivity against PKG” value [4] was greater than 300.
